Several values for one entry are separate records, joined by “and”; a condition that tells them apart may be missing. Equal values may be shown once.
Key:
[1] = system: photochemically-induced brain ischemia; experiment: Photochemically-induced (rose Bengal) focal cerebral ischemia on rats; assay type: in vivo, rat; conditions: for Red Ischemic Area, Excluding Blue Evan Penumbra / Weight of ischemic area: mean, n = 10
Text: The aim of this study was to evaluate the activity of Betaine on thrombus formation in a rat model of photochemically-induced brain ischemia. The method (11) is based on local free radical release exerted by filtered light acting on rose Bengal previously injected in animals. Free radicals are known to induce endothelial damage, followed by platelet aggregation, thrombus formation and vascular occlusion. Briefly, an optic fiber in close contact shone denuded intact skulls (diameter of the illuminated circle 5.4 mm, luminance at the entrance of optic fiber was 5.6×10^6 Ix). After turning on the lamp, an infusion through the caudal vein of a 5 mg/mL (w/v) solution of rose Bengal in saline was started. Two mL of the solution were administered at a flow rate of 0.1 mL/min. After 20 min, at the end of the infusion, the lamp was turned off. [table] Evan's Blue solution (2% w/v) in saline was intravenously injected (1 mL/rat), 18-20 h after the ischemia induction in order to reveal the BBB breakdown. The rats were sacrificed 20 min after Evan's Blue injections and their brains removed. The infarcted area was visually verified, photographed by digital camera and then weighed.

nitric oxide = experiment: Nitric oxide production in healthy volunteers after single betaine ingestion (plasma, Griess reaction); assay type: in vivo, human; parameters: Conc. (nitric oxide) / Conc. (2) (nitric oxide): unit not given here
Description: Betaine is administrated at 75 mg/kg single oral dose at T0 to fastened healthy volunteers just after the basal blood sample. At T0 and T0+60 mn fresh blood samples are centrifuged to obtain plasma.
The samples are then tested for nitric oxide with the Griess reaction.

[2] = system: fresh blood (Thromboelastograph); experiment: TEG parameters after betaine oral administration in healthy volunteers; assay type: in vivo, human; conditions: for K / MA / R / α Angle: T0 + 60 mn after 75 mg/kg single oral dose
Description: Betaine is administrated at 75 mg/kg single oral dose at T0 to fastened healthy volunteers just after the basal blood sample. At T0 and T0+60 mn the fresh blood samples are immediately evaluated in the Thromboelastograph (TEG®—Haemoscope Corp.—Illinois).
R parameter corresponds to […] initial fibrin formation, and is functionally related to plasma clotting factors and clot formation.

total nitric oxide = experiment: Nitric oxide plasma levels in healthy volunteers after repeated betaine ingestion; assay type: in vivo, human; parameters: Nitric oxide plasma levels Conc / Nitric oxide plasma levels Conc (×2): unit not given here; conditions: for Nitric oxide plasma levels Conc / Nitric oxide plasma levels Conc (×2): individual donors
Description: (§1) After obtaining the baseline blood samples (sample a) from fastened normal healthy volunteers (n=10), Betaine was repeatedly administered in daily doses of 6 g. (2×3) for 1 week. After obtaining the 1 week blood sample from fastened volunteers (sample b) Betaine was again administered orally at a dose of 3 g. and a third blood sample drawn after one hour (sample c). […] The blood samples were centrifuged and the separated platelet poor plasma was then aliquoted and frozen at −70° C. for subsequent analysis for nitric oxide (NO), tissue factor pathway inhibitor (TFPI) activity levels and global clotting assays.
(§2) The samples are identified for each donor as number of donor (1, 2, etc) followed by the letter of the sample (a, b, c).

[3] = system: Tissue Factor Pathway Inhibitor (TFPI); experiment: TFPI activity plasma levels in healthy volunteers after repeated betaine ingestion; assay type: in vivo, human; conditions: for TFPI ACTIVITY: individual donors
Description: as §1, §2

[4] = system: Tissue Factor Pathway Inhibitor (TFPI); experiment: TFPI concentration plasma levels in healthy volunteers after repeated betaine ingestion; assay type: in vivo, human; conditions: for TFPI CONCENTRATION: individual donors
Description: as §1, §2

[5] = system: blood (rate of initial fibrin formation); experiment: TEG at each blood draw during repeated betaine ingestion; assay type: in vivo, human; conditions: compared to the baseline values; 6 g daily for 1 week, then 3 g
Description: as §1

[6] = system: Pulmonary Arterial Hypertension; experiment: Betaine added to Bosentan in patients with Pulmonary Arterial Hypertension (PAP, heart rate, 6MWT); assay type: in vivo, human; conditions: after two weeks of anhydrous betaine 6 g/day bid added to Bosentan 125 mg bid
Description: Nine patients suffering from Pulmonary Arterial Hypertension and taking 125 mg Bosentan bid were randomly assigned to placebo (lactose monohydrate) 6 g/day bid (4 patients) or to anhydrous betaine 6 g/day bid (5 patients) during two weeks. They were assessed for haemodynamic variables and for 6 minutes walking test at inclusion and after the two weeks of medication with placebo or betaine. Pulmonary Artery Pressure (PAP) and Heart rate were non-invasively estimated by Doppler echocardiography method. 6MWT was performed on a treadmill.

[7] = system: thrombus formation in mesenteric veinules or arterioles; experiment: Laser-induced thrombosis in rat mesenteric circulation; assay type: in vivo, Wistar rats
Text: Male Wistar rats (200-270 gram) were used for the experiments. […] After the medial laparotomy the intestinal loop was placed on the microscope table. Vascular lesions were produced by Argon laser […] This shot causes a well limited lesion of the vascular endothelium (only few cells are destroyed) exposing the thrombogenetic under-layer of the sub-endothelium. The contact of blood with this surface triggers the adherence of platelets via glycoproteins Ib & IIb IIIa. This adherence of platelets is followed by their activation: they form pseudopods and secrete the content of their granules. As a consequence thrombus formation occurs within few seconds. This platelet rich thrombus rapidly enlarges under influence of blood flow, embolises (i.e. is disrupted and carried by the flow from the thrombogenic area) before a new thrombus being formed again on the injured surface. […] Up to four shots can be fired if no emboli (platelet thrombus) are readily appearing. The number of successive laser beams and emboli formed are then recorded. In the presence of an antithrombotic compound a higher number of laser shots are necessary to induce thrombus formation. Similarly, a smaller number of emboli (platelet thrombi) are formed as compared with controls and the duration of the embolisation is also shorter. […] Similarly, a higher number of emboli (platelet thrombi) are formed as compared with controls and the duration of the embolisation is also longer. Betaine is orally administrated to animals at 50 mg/kg, 60 minutes before laser thrombosis.

[8] = system: fresh blood (Thromboelastograph); experiment: TEG parameters after betaine oral administration in healthy volunteers; assay type: in vivo, human; conditions: evaluated with TEG
[9] = Betaine 10 mg/kg sc 1 h before ischemia induction
[10] = Betaine 10 mg/kg sc at the end of ischemia induction, (*) P<0,05
[11] = plasma, Post = T0+60 mn after 75 mg/kg single oral dose, individual volunteers
[12] = healthy volunteers, 60 minutes after oral administration
[13] = mean T0 + 60 mn versus mean basal value
[14] = betaine oral administration, healthy volunteers (n=10)
[15] = sample b: fasted, after 6 g daily (2×3) for 1 week
[16] = sample c: one hour after a further 3 g oral dose following 1 week of 6 g daily

C[N+](C)(C)CC(=O)O [Betaine, glycine betaine]
Red Ischemic Area, Excluding Blue Evan Penumbra [1, 9]: 0.335 cm^2
Weight of ischemic area [1, 9]: 36 mg
Red Ischemic Area, Excluding Blue Evan Penumbra [1, 10]: 0.28 cm^2
Weight of ischemic area [1, 10]: 25 mg
Efficacy in the stroke model compared with Aspirin ([1]; rat, Betaine 10 mg/kg sc): better efficacy than Aspirin
Crossing of encephalic barrier ([1]; rat, after being present in blood stream): ability to cross encephalic barrier
Nitric oxide levels (nitric oxide; oral administration, all tested volunteers): markedly increased
Conc. (2) (nitric oxide) (nitric oxide; [11]): 41.81 and 24.14 and 65.53 and 114.21 and 70.19 and 72.51
Conc. (nitric oxide) (nitric oxide; [11]): 20.91 and 12.07 and 32.77 and 57.42 and 35.09 and 36.26
K ([2]; individual volunteers): 2.5 mn and 1.8 mn and 2.0 mn and 1.3 mn (2×) and 2.7 mn
MA ([2]; individual volunteers): 52.6 mm and 65.0 mm and 56.8 mm and 65.8 mm and 61.9 mm and 70.1 mm
R ([2]; individual volunteers): 5.8 mn and 7.3 mn and 7.4 mn and 4.8 mn and 8.4 mn and 6.3 mn
α Angle ([2]; individual volunteers): 57.5 ° and 65.5 ° and 64.2 ° and 71.9 ° and 66.9 ° and 70.4 °
K ([2]; mean of 6 volunteers): 1.9 mn
MA ([2]; mean of 6 volunteers): 62.0 mm
R ([2]; mean of 6 volunteers): 6.8 mn
α Angle ([2]; mean of 6 volunteers): 66.1 °
Blood coagulation (R parameter) [2, 12]: significantly prolonged
Other TEG parameters [2, 12]: remained stable
Δ K [2, 13]: −8%
Δ MA [2, 13]: +3%
Δ R [2, 13]: +45%
Δ α Angle [2, 13]: +1%
Nitric oxide levels (total nitric oxide; [14]): increased
Nitric oxide plasma levels Conc (total nitric oxide; [15]): 29.11 and 28.89 and 9.11 and 26.28 and 20.2 and 22.59 and 13.24 and 21.5 and 24.11 and 14.11
Nitric oxide plasma levels Conc (×2) (total nitric oxide; [15]): 58.217 and 57.783 and 18.217 and 52.565 and 40.391 and 45.174 and 26.478 and 43 and 48.217 and 28.217
Nitric oxide plasma levels Conc (total nitric oxide; [16]): 14.54 and 41.07 and 39.96 and 27.8 and 26.72 and 22.8 and 25.85 and 11.93 and 31.28 and 27.15
Nitric oxide plasma levels Conc (×2) (total nitric oxide; [16]): 29.087 and 82.13 and 79.957 and 55.609 and 53.435 and 45.609 and 51.696 and 23.87 and 62.565 and 54.304
TFPI activity plasma levels [3, 14]: increased
TFPI ACTIVITY [3, 15]: 3.30 U/ml and 181.61 ng/ml and 2.74 U/ml and 150.83 ng/ml and 2.66 U/ml and 146.34 ng/ml and 2.30 U/ml and 126.36 ng/ml and 2.17 U/ml and 119.46 ng/ml and 4.66 U/ml and 256.55 ng/ml and 3.39 U/ml and 186.37 ng/ml and 2.99 U/ml and 164.44 ng/ml and 3.52 U/ml and 193.76 ng/ml and 4.43 U/ml and 243.59 ng/ml
TFPI ACTIVITY [3, 16]: 3.60 U/ml and 197.99 ng/ml and 2.19 U/ml and 120.49 ng/ml and 1.71 U/ml and 94.20 ng/ml and 2.74 U/ml and 150.83 ng/ml and 2.98 U/ml and 163.73 ng/ml and 4.53 U/ml and 248.91 ng/ml and 3.65 U/ml and 200.57 ng/ml and 3.23 U/ml and 177.73 ng/ml and 3.45 U/ml and 189.62 ng/ml and 4.03 U/ml and 221.52 ng/ml
TFPI concentration plasma levels [4, 14]: increased
TFPI CONCENTRATION [4, 15]: 59.45 ng/mL and 66.23 ng/mL and 84.35 ng/mL and 47.14 ng/mL and 64.57 ng/mL and 76.40 ng/mL and 93.34 ng/mL and 47.28 ng/mL and 70.31 ng/mL and 89.81 ng/mL
TFPI CONCENTRATION [4, 16]: 86.98 ng/mL and 70.38 ng/mL and 76.12 ng/mL and 70.52 ng/mL and 82.62 ng/mL and 89.19 ng/mL and 87.74 ng/mL and 58.62 ng/mL and 63.25 ng/mL and 83.38 ng/mL
TEG reaction time, i.e. rate of initial fibrin formation [5]: marked prolongation
Heart rate 2 ([6]; individual patients): 84 beats/minute and 67 beats/minute and 74 beats/minute and 69 beats/minute and 72 beats/minute
Week 2 ECO 2 PAP ([6]; individual patients): 71 mmHg and 60 mmHg and 80 mmHg and 65 mmHg and 58 mmHg
6MWT 2 ([6]; mean of 5 patients): 413 m
Heart rate 2 ([6]; mean of 5 patients): 73.2 beats/minute
Week 2 ECO 2 PAP ([6]; mean of 5 patients): 66.8 mmHg
6MWT 2 ([6]; treadmill, individual patients): 380 m and 504 m and 360 m and 411 m and 410 m
Number of laser beams, number of emboli and duration of embolisation relative to saline control values ([7]; Betaine co-administration with selective COX 2 inhibitors): normalise
Protection from selective COX 2 inhibitors thrombogenicity ([7]; rats, Betaine co-administered orally at 50 mg/kg): clearly protects animals from selective COX 2 inhibitors thrombogenicity
R prolongation compared with Lovenox in post orthopaedic surgery patients [8]: as potent as Lovenox® anticoagulation
